{
  "source": "paper PMC8920872",
  "about": "(Toxicology Reports, 2022)",
  "assay_type_in_all_cases": "cell-based",
  "key": {"[1]": {"test_system": "JIMT-1 breast cancer cells", "test": "MTT dose response assay, JIMT-1", "conditions": "Homo sapiens, JIMT-1, 72 h"}, "[2]": {"test_system": "MCF-7 breast cancer cells", "test": "MTT dose response assay, MCF-7", "conditions": "Homo sapiens, MCF7, 72 h"}, "[3]": {"test_system": "MCF-10A normal-like breast epithelial cells", "test": "MTT dose response assay, MCF-10A", "conditions": "Homo sapiens, 72 h"}, "[4]": {"conditions": "read-out: IC50 (mean of three repeats ± SD)"}},
  "note": "Read-outs that look alike come from different tables or passages of the source.",
  "data": [
    {"molecule": "C=C[C@@]12COC(=O)C(=C)[C@@H]1[C@H]1OC(=O)C(=C)[C@@H]1[C@@H](O)C2", "note": "[Vernolepin (5), Vernolepin]", "values": [
      {"measurement": "IC50", "setting": "[1]", "result": "1.7 ± 0.3", "unit": "µM"},
      {"measurement": "IC50", "setting": "[2]", "result": "15.9 ± 0.6", "unit": "µM"},
      {"measurement": "IC50", "setting": "[3]", "result": "2.3 ± 0.2", "unit": "µM"}
    ]},
    {"molecule": "C=C[C@@]12COC(=O)C(=C)[C@@H]1[C@@H](O)[C@H](C(=C)C(=O)OC)[C@@H](OC(=O)C(=C)CO)C2", "note": "[Vernodalol, reference compound]", "values": [
      {"measurement": "IC50", "setting": "[1]; [4]", "result": 11.1, "unit": "µM"},
      {"measurement": "IC50", "setting": "[3]; [4]", "result": 12.1, "unit": "µM"}
    ]}
  ]
}
